Data on one compound can be found in US12491198B2, “Doxycycline injection for sclerotherapy of lower eyelid festoons and malar edema” (LKF21, LLC, priority 2020, dated 2025).

For data set [1], the system named is lower eyelid festoons and malar edema. It is filed as in vivo, human. As for the experimental part:
An initial study of 15 consecutive patients with malar edema and/or festoons were injected with doxycycline hyclate at a concentration of 10 mg/mL. Pre- and post-injection photographs were reviewed and graded on a scale of 0 to 3 (0 no festoon, 1 small festoon, 2 medium festoon, 3 large festoon) by two blinded physician observers. […] Student t-test was used for statistical analysis.
Institutional Review Board (IRB) approval was obtained. A retrospective chart review was performed on 15 consecutive patients injected with doxycycline hyclate at a concentration of 10 mg/mL directly into their malar edema and festoons. The primary outcome measure was improvement in the appearance of lower eyelid festoons or malar edema. Pre- and post-injection photographs were reviewed and graded on a scale of 0 to 3 (0 no festoon, 1 small festoon, 2 medium festoon, 3 large festoon) by two blinded physician observers. All pre- and post-treatment photographs were taken in a standardized position without the use of a flash device. Written consent was obtained for the use of photographs and is on file with the authors. Additional data collected included patient age, volume of injection, location of injection, number of injections, and subjective complaints. […] Student t-test was used for statistical analysis.
Patients were offered injections in clinic or in the operating room with intravenous sedation, with or without concurrent eyelid surgery. For injections performed in the operating room, doxycycline hyclate was ordered from the hospital pharmacy at a concentration of 10 mg/mL. For injections performed in the office, doxycycline hyclate 100 mg sterile powder, lyophilized (Fresenius Kabi, Lake Zurich, Illinois, USA) was diluted to a concentration of 10 mg/mL with sterile 0.9% bacteriostatic sodium chloride solution. The solution was refrigerated at […], used within 48 hours of reconstitution, and protected from direct sunlight. Injections were performed using 1.0 mL syringes on a 30-gauge needle, directly into the festoon in multiple deep and intermediate planes beneath skin and muscle. Analysis of protected health information was compliant with the Health Insurance Portability and Accountability Act (HIPAA) and adherent to the Declaration of Helsinki.

Data set [2] has as its system edema of festoons and malar mounds. Kind of data set: Studies of doxycycline as sclerosing agent at lower concentrations and compared with tetracycline. The conditions noted are these: versus tetracycline. It is filed as in vivo.

Regarding `C[C@H]1c2cccc(O)c2C(=O)C2=C(O)[C@]3(O)C(=O)C(C(N)=O)=C(O)[C@@H](N(C)C)[C@@H]3[C@@H](O)[C@@H]21` [doxycycline hyclate], in data set [1] (human, in vivo), the “bruising, average duration” value is listed as 10 days; the “patients reporting burning pain during the injection” value is on record as 100%; the “skin redness, average duration of symptoms” value was found to be 2 days. Also, the “average (standard deviation) festoon grade after injection” value in data set [1] (post-injection, 10 mg/mL intralesional, scale 0 to 3, 20 treatment sides of 11 patients, mean follow up 22.5 weeks, p-value<0.001 vs initial) is recorded as 0.9 (0.82). Moreover, in data set [1] (pre-injection, scale 0 to 3 (0 no festoon, 3 large festoon), 20 treatment sides of 11 patients, two blinded physician observers), the “average (standard deviation) initial festoon grade” value was 2.5 (0.58). Further, the “risk of necrotizing dermalysis compared with tetracycline” value in data set [2] is “significantly lower risk”.
